molecular target: T1, HIV-integrase (Human immunodeficiency virus type 1 group M subtype B, UniProt P12497); assay: HIV-Integrase Inhibition Activity (SPA bead integration assay with P33 labeled target DNA); assay type: biochemical; settings: recombinant integrase, class symbols; read-out: in vitro activity
T1 construct: Recombinant integrase (0.26 ng) was incubated with the beads
How it was run: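 Biotinylated substrate DNA on streptavidin SPA beads loaded with recombinant integrase (90 min, 37° C), washed, then inhibitor plus 0.1 fmol P33-labeled target DNA added. Reaction stopped with 10 mM EDTA; integration measured as CPM by scintillation, giving IC50 ranks.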

Compared with `Cc1cc(CNC(=O)c2nc3n(c(=O)c2O)CC2CCC3(NC(=O)C(=O)N(C)C)CC2)nn1C(C)(C)C` [Example 236, Ethanediamide, N′-[2-[[[[1-(1,1-dimethylethyl)-5-methyl-1H-pyrazol-3-yl]methyl]amino]carbonyl]-6,7,8,9-tetrahydro-3-hydroxy-4-oxo-7,10-ethanopyrimido[1,2-a]azepin-10(4H)-yl]-N,N-dimethyl-], `CN(C)C(=O)C(=O)NC12CCC(CC1)Cn1c2nc(C(=O)NCc2cccc(F)c2)c(O)c1=O` [Example 371] is lower in IC50: 10 to 100 nM for the first, < 10 nM for the second.

`Cc1cc(CNC(=O)c2nc3n(c(=O)c2O)CC[C@@H]2CC[C@@]3(NC(=O)C(=O)N(C)C)C2)ccc1F` [Example 415, Ethanediamide, N′-[(8S,11R)-2-[[[(4-fluoro-3-methylphenyl)methyl]amino]carbonyl-7,8,9,10-tetrahydro-3-hydroxy-4-oxo-8,11-methano-4H-pyrimido[1,2-a]azocin-1](6H)-yl]-N,N-dimethyl-] and `CN(C)C(=O)C(=O)NC12CCC(CC1)Cn1c2nc(C(=O)NCc2ccc(F)c(C(F)(F)F)c2)c(O)c1=O` [Example 119, N′-(2-((4-Fluoro-3-(trifluoromethyl)benzyl)carbamoyl)-3-hydroxy-4-oxo-6,7,8,9-tetrahydro-7,10-ethanopyrimido[1,2-a]azepin-10(4H)-yl)-N,N-dimethylethanediamide] cannot be ordered by IC50: < 10 nM for the first, < 10 nM for the second.

`CO[C@@H]1C[C@@H](C(=O)NC23CCC(CC2)Cn2c3nc(C(=O)NCc3ccc(F)cc3)c(O)c2=O)N(S(C)(=O)=O)C1` [Example 274, 7,10-Ethanopyrimido[1,2-a]azepine-2-carboxamide, N-[(4-fluorophenyl)methyl]-4,6,7,8,9,10-hexahydro-3-hydroxy-10-[[[(2S,4R)-4-methoxy-1-(methylsulfonyl)-2-pyrrolidinyl]carbonyl]amino]-4-oxo-] and `CCOC(=O)N1CCCC1C(=O)NC12CCC(CC1)Cn1c2nc(C(=O)NCc2ccc(F)cc2)c(O)c1=O` (stereo not shown) [Example 397] cannot be ordered by IC50: < 10 nM for the first, < 10 nM for the second.

`Cc1cc(CNC(=O)c2nc3n(c(=O)c2O)CC2CCC3(NC(=O)C(C)(C)n3cc(C(=O)O)nn3)CC2)ccc1F` [Example 285, 1H-1,2,3-Triazole-4-carboxylic acid, 1-[2-[[2-[[[(4-fluoro-3-methylphenyl)methyl]amino]carbonyl]-6,7,8,9-tetrahydro-3-hydroxy-4-oxo-7,10-ethanopyrimido[1,2-a]azepin-10(4H)-yl]amino]-1,1-dimethyl-2-oxoethyl]-] and `CC(=O)N1CCC1C(=O)NC12CCC(CC1)Cn1c2nc(C(=O)NCc2ccc(F)c(C)c2)c(O)c1=O` (stereo in doubt) [Example 275, 7,10-Ethanopyrimido[1,2-a]azepine-2-carboxamide, 10-[[[(2S)-1-acetyl-2-azetidinyl]carbonyl]amino]-N-[(4-fluoro-3-methylphenyl)methyl]-4,6,7,8,9,10-hexahydro-3-hydroxy-4-oxo-] cannot be ordered by IC50: < 10 nM for the first, < 10 nM for the second.

`CN(C)C(=O)C(=O)NC12CCC(CC1)Cn1c2nc(C(=O)NCc2ccc(F)cc2-c2ccccc2)c(O)c1=O` [Example 307, Ethanediamide, N′-[2-[[[(5-fluoro/[1,1′-biphenyl]-2-yl)methyl]amino]carbonyl]-6,7,8,9-tetrahydro-3-hydroxy-4-oxo-7,10-ethanopyrimido[1,2-a]azepin-10(4H)-yl]-N,N-dimethyl-] and `CN(C)C(=O)C(=O)NC12CCC(CC1)Cn1c2nc(C(=O)NCc2ccccc2-c2ccccc2)c(O)c1=O` [Example 387] cannot be ordered by IC50: < 10 nM for the first, < 10 nM for the second.

`O=C(NC12CCC(CC1)Cn1c2nc(C(=O)NCc2ccc(F)cc2)c(O)c1=O)c1ccncc1` [Example 35, N-(4-Fluorobenzyl)-3-hydroxy-4-oxo-10-((4-pyridinylcarbonyl)amino)-4,6,7,8,9,10-hexahydro-7,10-ethanopyrimido[1,2-a]azepine-2-carboxamide] and `CC(=O)Nc1ccc(C(=O)NC23CCC(CC2)Cn2c3nc(C(=O)NCc3ccc(F)cc3)c(O)c2=O)cn1` [Example 320, 7,10-Ethanopyrimido[1,2-a]azepine-2-carboxamide, 10-[[[6-(acetylamino)-3-pyridinyl]carbonyl]amino]-N-[(4-fluorophenyl)methyl]-4,6,7,8,9,10-hexahydro-3-hydroxy-4-oxo-] cannot be ordered by IC50: < 10 nM for the first, < 10 nM for the second.

`COCCN1CCN(C(=O)C(=O)NC23CCC(CC2)Cn2c3nc(C(=O)NCc3ccc(F)cc3)c(O)c2=O)CC1` [Example 73, N-(4-Fluorobenzyl)-3-hydroxy-10-(((4-(2-methoxyethyl)-1-piperazinyl)(oxo)acetyl)amino)-4-oxo-4,6,7,8,9,10-hexahydro-7,10-ethanopyrimido[1,2-a]azepine-2-carboxamide] and `O=C(NC12CCC(CC1)Cn1c2nc(C(=O)NCc2ccc(F)cc2)c(O)c1=O)C(=O)N1CCN(C(=O)C2CCCO2)CC1` (stereo not shown) [Example 74, N-(4-Fluorobenzyl)-3-hydroxy-4-oxo-10-((oxo(4-(tetrahydro-2-furanylcarbonyl)-1-piperazinyl)acetyl)amino)-4,6,7,8,9,10-hexahydro-7,10-ethanopyrimido[1,2-a]azepine-2-carboxamide] cannot be ordered by IC50: < 10 nM for the first, < 10 nM for the second.

`CC(C)(O)C(=O)NC12CCC(CC1)Cn1c2nc(C(=O)NCc2ccc(F)cc2)c(O)c1=O` [Example 261, 7,10-Ethanopyrimido[1,2-a]azepine-2-carboxamide, N-[(4-fluorophenyl)methyl]-4,6,7,8,9,10-hexahydro-3-hydroxy-10-[(2-hydroxy-2-methyl-1-oxopropyl)amino]-4-oxo-] and `O=C(O)C(=O)NC12CCC(CC1)Cn1c2nc(C(=O)NCc2ccc(F)cc2)c(O)c1=O` [Example 84, ((2-((4-Fluorobenzyl)carbamoyl)-3-hydroxy-4-oxo-6,7,8,9-tetrahydro-7,10-ethanopyrimido[1,2-a]azepin-10(4H)-yl)amino) (oxo)acetic acid] cannot be ordered by IC50: < 10 nM for the first, < 10 nM for the second.

Compared with `CN(C)C(=O)C(=O)NC12CCC(CC1)Cn1c2nc(C(=O)NCCc2ccc(O)cc2)c(O)c1=O` [Example 347], `CN(C)C(=O)C(=O)NC12CCC(CC1)Cn1c2nc(C(=O)NCc2ccc(Cl)cc2Cl)c(O)c1=O` [Example 368] is lower in IC50: > 100 nM for the first, < 10 nM for the second.

`CO[C@H]1C[C@@H](C(=O)NC23CCC(CC2)Cn2c3nc(C(=O)NCc3ccc(F)c(C)c3)c(O)c2=O)N(C(=O)c2nnc(C)o2)C1` [Example 297, 7,10-Ethanopyrimido[1,2-a]azepine-2-carboxamide, N-[(4-fluoro-3-methylphenyl)methyl]-4,6,7,8,9,10-hexahydro-3-hydroxy-10-[[[(2S,4S)-4-methoxy-1-[(5-methyl-1,3,4-oxadiazol-2-yl)carbonyl]-2-pyrrolidinyl]carbonyl]amino]-4-oxo-] and `Cc1cc(CNC(=O)c2nc3n(c(=O)c2O)CC2CCC3(NC(=O)c3cc(-c4cnn(C)c4)on3)CC2)ccc1F` [Example 292, 7,10-Ethanopyrimido[1,2-a]azepine-2-carboxamide, N-[(4-fluoro-3-methylphenyl)methyl]-4,6,7,8,9,10-hexahydro-3-hydroxy-10-[[[5-(1-methyl-1H-pyrazol-4-yl)-3-isoxazolyl]carbonyl]amino]-4-oxo-] cannot be ordered by IC50: < 10 nM for the first, < 10 nM for the second.

First: COc1cccc(CNC(=O)c2nc3n(c(=O)c2O)CC2CCC3(NC(=O)C(=O)N(C)C)CC2)c1OC [Example 381]
Second: CN(C)C(=O)C(=O)OCCNC12CCC(CC1)Cn1c2nc(C(=O)NCc2ccc(F)cc2)c(O)c1=O [Example 176]
The IC50 of the first is lower: < 10 nM for the first, 10 to 100 nM for the second. The first is the more potent here.
